This test deals with SAM-P1 male mice (mice of senescence-accelerated model). In words: Maximum force of soleus muscle under electrical stimulation in senescence-accelerated mice. The format is in vivo, mouse. As to conditions: after breeding for 9 weeks. The protocol: Thereafter, these mice were divided into the following groups (eight mice in each group): […] The mice of each group were subjected to a physical exercise at 10 m/min for 3 minutes in a running-water pool five times a day and four days a week. After breeding for nine weeks, a soleus muscle was removed from a mouse of each group through dissection and fixed to a transducer (FORT100, product of World Precision Instruments, Inc.) in Krebs solution of 37° C. (aeration: 95%-oxygen, 5%-carbon dioxide). Subsequently, under electrical stimulation (0.5 msec, 140 Hz), the maximum muscle force of the muscle sample was determined.

With `CC(C)C[C@H](N)C(=O)O` [leucine, Leucine], the “Maximum soleus muscle force compared with SAM-P1 control group” value (Dunnet test) is “No significant difference”. The “Maximum muscle force” value (soleus muscle, electrical stimulation 0.5 msec 140 Hz, diet 0.35% of each ingredient) turned out to be 11.1 ± 0.7 g.
